Test results taken from US12116358B2, “Substituted indoles and methods of use thereof” (EPIZYME, INC., priority 2018, dated 2024).
Read-outs that look alike come from different tables or passages of the source.

Key:
H3K36me3 in A549 cells = test: In-Cell Western (ICW) assay of SETD2 inhibitors (A549 assay); format: cell-based, human; conditions: A549 cells, read-out: SETD2 A549
Method in brief: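 A549 cells seeded at 4,000/well onto compound and incubated 3 days at 37° C. Methanol-fixed cells stained overnight at 4° C with anti-H3K36me3 (1:1000), then IRDye 800CW secondary with DRAQ5 DNA counterstain. Plates read by Licor imaging at 700 and 800 channels.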

KMS-34 cells = test: 14 day KMS-34 long term proliferation (LTP) assay; conditions: read-out: LTP Day 14 Abs IC50; KMS-34 cells, day 14
Method: 14 Day KMS-34 Long Term Proliferation (LTP) Assay
Incubate plates for 96 hrs.
The final concentration is 1 μm.
To calculate growth for days 4, 7, 11, and 14:
1. Calculate the split factor for day 4 to 7, day 7 to 11, and day 11-14 The split factor is the viable cells/mL on Day X (either 4, 7, or 11) divided by the density the cells are being split back to.
2. For growth of cells from day 4 to 7, multiply the day 7 viable cells/mL density by the split factor from day 4.
4. For growth of cells from Day 11 to 14, multiply the Day 14 viable cells/mL density by the days 4, 7, and 11 split factors.
5. Plot growth on semi-log chart (viable cells/mL on Y axis, in log, and days on X axis).
From 5 mM to 0.25 μm. […] Mix well by pipetting up and down.

SETD2(1434-1711) = molecular target: T1, SETD2(1434-1711) (Homo sapiens, UniProt Q9BYW2); test: SETD2 (1434-1711) assay; format: biochemical; conditions: read-out: SETD2 (1434-1711)
T1 construct: SETD2 (1434-1711) Assay; catalogue N/A
T1 sequence (Q9BYW2 1434-1711): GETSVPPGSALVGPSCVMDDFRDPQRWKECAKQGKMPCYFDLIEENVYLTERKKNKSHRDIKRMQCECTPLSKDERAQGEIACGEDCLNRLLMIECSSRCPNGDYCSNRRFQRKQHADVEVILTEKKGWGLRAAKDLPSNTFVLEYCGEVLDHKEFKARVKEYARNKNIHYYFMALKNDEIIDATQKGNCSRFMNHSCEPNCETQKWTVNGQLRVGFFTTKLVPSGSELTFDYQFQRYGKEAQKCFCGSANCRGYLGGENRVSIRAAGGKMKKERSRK

IC50 (H3K36me3 in A549 cells) [nM]	IC50 (SETD2(1434-1711)) [nM]	IC50 (H3K36me3 in A549 cells; Homo sapiens) [nM]	Structure (SMILES)	IC50 (KMS-34 cells) [nM]
40	–	–	CC(=O)N1CCN(c2cc(F)cc(NC(=O)c3cc4c(F)ccc(C)c4[nH]3)c2)CC1 [compound 7]	60
80	–	–	CC(=O)N1CCN(c2cccc(NC(=O)c3cc4c(F)ccc(C)c4[nH]3)c2)CC1 [compound 34]	250
> 2000	–	–	CC(=O)N1CCN(C2CCCC(NC(=O)c3cc4c(F)ccc(C)c4[nH]3)C2)CC1 (centres unmarked) [compound 359]	7800
> 2000	–	–	CC(=O)N1CCN(C2CCCC(NC(=O)c3cc4c(F)ccc(C)c4[nH]3)C2)CC1 (centres unmarked) [compound 372]	10000
> 2000	–	–	CC(=O)N1CCN(C2CCCC(NC(=O)c3cc4c(F)ccc(C)c4[nH]3)C2)CC1 (centres unmarked) [compound 373]	10000
200	70	–	CC(=O)N1C(C)CN(C2CCCC(NC(=O)c3cc4c(F)ccc(C)c4[nH]3)C2)CC1C (centres unmarked) [compound 1162]	–
> 2000	1600	–	CC(=O)N1C(C)CN(C2CCCC(NC(=O)c3cc4c(F)ccc(C)c4[nH]3)C2)CC1C (centres unmarked) [compound 1163]	–
> 2000	2100	–	CCC(=O)N1CCN(C2CCCC(NC(=O)c3cc4c(F)ccc(C)c4[nH]3)C2)CC1C(F)(F)F (centres unmarked) [compound 1164]	–
> 2000	3500	–	Cc1ccc(F)c2cc(C(=O)NC3CCCC(N4CCn5c(nccc5=O)C4)C3)[nH]c12 (centres unmarked) [compound 1165]	–
> 2000	1000	–	Cc1ccc(F)c2cc(C(=O)NC3CCCC(N4CCn5c(c[nH]c5=O)C4)C3)[nH]c12 (centres unmarked) [compound 1166]	–
60	20	–	CCC(=O)N1CCN(C2CCCC(NC(=O)c3cc4c(F)ccc(C)c4[nH]3)C2)CC1C(F)(F)F (centres unmarked) [compound 1167]	–
> 2000	1300	–	CCC(=O)N1CCN(C2CCCC(NC(=O)c3cc4c(F)ccc(C)c4[nH]3)C2)CC1C(F)(F)F (centres unmarked) [compound 1168]	–
> 2000	900	–	CNC(=C[N+](=O)[O-])N1CCN(C2CCCC(NC(=O)c3cc4c(F)ccc(C)c4[nH]3)C2)CC1 (centres unmarked) [compound 1169]	–
> 2000	1800	–	Cc1ccc(F)c2cc(C(=O)NC3CCCC(N4CCN(C(=O)NC5CCOCC5)CC4)C3)[nH]c12 (centres unmarked) [compound 1170]	–
60	30	–	Cc1ccc(F)c2cc(C(=O)NC3CCCC(N4CCN(C(=O)C(C)C)C(C(F)(F)F)C4)C3)[nH]c12 (centres unmarked) [compound 1171]	–
> 2000	3100	–	Cc1ccc(F)c2cc(C(=O)NC3CCCC(N4CCN(C(=O)C(C)C)C(C(F)(F)F)C4)C3)[nH]c12 (centres unmarked) [compound 1172]	–
30	40	–	Cc1ccc(F)c2cc(C(=O)NC3CCCC(N4CCN(C(=O)CO)C(C(F)(F)F)C4)C3)[nH]c12 (centres unmarked) [compound 1173]	–
> 2000	4800	–	Cc1ccc(F)c2cc(C(=O)NC3CCCC(N4CCN(C(=O)CO)C(C(F)(F)F)C4)C3)[nH]c12 (centres unmarked) [compound 1174]	–
> 2000	8400	–	Cc1ccc(F)c2cc(C(=O)NC3CCCC(N4CCN(C(=O)C(C)C)C(C(F)(F)F)C4)C3)[nH]c12 (centres unmarked) [compound 1175]	–
> 2000	2900	–	Cc1ccc(F)c2cc(C(=O)NC3CCCC(N4CCN(C(=O)CO)C(C(F)(F)F)C4)C3)[nH]c12 (centres unmarked) [compound 1176]	–
300	30	–	CC(=O)N1CC2CN(C3CCCC(NC(=O)c4cc5c(F)ccc(C)c5[nH]4)C3)CC2C1 (centres unmarked) [compound 1177]	–
> 2000	3900	–	CC(=O)N1CC2CN(C3CCCC(NC(=O)c4cc5c(F)ccc(C)c5[nH]4)C3)CC2C1 (centres unmarked) [compound 1178]	–
800	500	–	Cc1ccc(F)c2cc(C(=O)NC3CCCC(N4CCn5c(cn(C)c5=O)C4)C3)[nH]c12 (centres unmarked) [compound 1179]	–
–	200	1800	Cc1ccc(F)c2cc(C(=O)N[C@H]3CCC[C@@H](C4=NNC(=O)CN4)C3)[nH]c12 [compound 1188]	–
–	600	> 2000	CC(=O)N1[C@H](C)CN([C@@H]2CCC[C@@H](NC(=O)c3cc4c(F)ccc(C)c4[nH]3)C2)C[C@H]1C [compound 1193]	–
